For this test, the system named is E. coli wild-type GFP strain growth, fluorescence, 24 h. Put plainly: growth inhibition of wild-type GFP E. coli, dose response, h34 mutant RFP, cherry-pick (AID 977624).

Inconclusive results are not listed. The source made the active and inactive calls.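 Rule for the calls: active = compound lowering the normal-ribosome reporter at least twice as much as the humanized-ribosome reporter, growth loss under a set limit; inconclusive = no clear call, values can overlap the other calls; inactive = the rest.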

For orientation: AC50 means the concentration at which the activity in the assay is half-maximal. Regarding `O=C(O)CC1(CC(=O)NCc2ccc(-c3cccs3)cc2)CCCCC1`, the AC50 is > 100 µM (inactive). `Cc1ccc(-n2nc(C)c3c(C)c(CCC(=O)O)c(C)nc32)cc1C`: the AC50 was > 100 µM (inactive).

As to `COc1ccc(NC(=O)CN(c2ccccc2OC)S(=O)(=O)c2cccs2)cc1Cl`, the AC50 was > 100 µM (inactive). As for `O=C(NCc1nc2ccccc2[nH]1)c1ccc(S(=O)(=O)N2CCCC2)cc1`, the AC50 is > 100 µM (inactive). Take `Cc1cccc(C)c1NC(=O)C1(C)CSCC(=O)N1CCOc1ccccc1` (centres undefined): the AC50 is > 100 µM (inactive). In the case of `O=S(=O)(c1ccccc1)N1C[C@@H]2[C@H](c3ccccc31)[C@H](CO)N2Cc1ccccc1`, the AC50 was > 100 µM (inactive).

As to `O=C(NCc1ccco1)c1ccc(COc2cccc3ccccc23)cc1`, the AC50 is > 100 µM (inactive).

With `CC1(C(=O)NS(=O)(=O)c2cccc(Cl)c2)CCN1C(=O)C1(c2ccc(Cl)cc2)CCC1` (centres undefined), the AC50 was > 100 µM (inactive). Turning to `Cc1ccc2nc(SCC(=O)Nc3c(F)cccc3F)[nH]c2c1`, the AC50 is > 100 µM (inactive).

For the compound `COc1ccc(C(CC(=O)c2ccc(O)cc2)S(=O)(=O)c2ccc(C)cc2)cc1` (centres undefined), the AC50 is > 100 µM (inactive). As for `CCOc1ccccc1N1CCN(Cc2cn[nH]c2-c2ccc(F)cc2)CC1`, the AC50 is > 100 µM (inactive). The same measure for `O=C(O)c1ccc(-c2noc(-c3cccc(Cl)c3)n2)cc1`: > 100 µM (inactive); for `C[C@H](CO)N1C[C@H](C)[C@H](CN(C)C(=O)CCCN(C)C)OCCCC[C@H](C)Oc2ccc(NC(=O)Nc3cccc4ccccc34)cc2C1=O`: > 100 µM (inactive). The same measure for `NC(=O)c1nsc(C(=O)N(c2ccccc2F)C(C(=O)NCc2ccc(F)cc2)c2ccc(O)cc2)c1N` (centres undefined): > 100 µM (inactive); for `O=C(CCc1nc2ccccc2s1)OCC(=O)c1ccc[nH]1`: > 100 µM (inactive).

For the compound `Fc1cccc(Cl)c1CSc1ccc(-c2ccco2)nn1`, the AC50 is > 100 µM (inactive).

In the case of `CCN(C(=O)COC(=O)c1cn(-c2ccccc2)nc1-c1ccccc1)C1CCS(=O)(=O)C1` (centres undefined), the AC50 is > 100 µM (inactive). As to `CCOc1ccc2sc(NS(=O)(=O)c3ccc(N)cc3)nc2c1`, the AC50 is > 100 µM (inactive). For `CCCCNC(=O)C[C@@H]1C[C@@]2(C(=O)OC)CCCCC=C2N(Cc2ccccc2)C1=O`, the AC50 is > 100 µM (inactive). Consider `CC(OC(=O)CCc1nc2ccccc2c(=O)[nH]1)C(=O)c1ccc(Br)cc1` (centres undefined), for which the AC50 is > 100 µM (inactive). Consider `NC(=O)c1ccsc1NC(=O)COC(=O)CCOc1ccccc1`, for which the AC50 is > 100 µM (inactive). With `Cc1c(C(=O)NCCSCc2cccc(C(F)(F)F)c2)cnn1-c1ccc(F)cc1`, the AC50 was > 100 µM (inactive).

Turning to `CC1CCN(CC(O)COCCC23CC4CC(CC(C4)C2)C3)CC1` (centres undefined), the AC50 is > 100 µM (inactive). With `COc1cc(NC(=O)CSCc2ccc(Cl)cc2Cl)c(C(=O)O)cc1OC`, the AC50 is > 100 µM (inactive). The same measure for `CCOC(=O)c1[nH]c2ccccc2c1NC(=O)c1ccc(Br)o1`: > 100 µM (inactive). Turning to `COc1ccc2nc(SCC(=O)Nc3ccccc3OC)[nH]c2c1`, the AC50 is > 100 µM (inactive). The same measure for `N#Cc1nc(Cc2ccccc2)oc1N1CCCC1`: > 100 µM (inactive); for `Cc1ccc(NC(=O)CN(C)S(=O)(=O)c2cccc3cccnc23)cc1F`: > 100 µM (inactive); for `CCOC(=O)c1nc(S(C)(=O)=O)ncc1Cl`: > 100 µM (inactive).

As to `CCOc1ccc(S(=O)(=O)N(C)c2ccc(OCC(=O)Nc3ccc4[nH]c(=O)[nH]c4c3)cc2)cc1`, the AC50 was > 100 µM (inactive). `C[C@@H]1CN([C@H](C)CO)C(=O)c2cccc(NC(=O)c3ccncc3)c2O[C@@H]1CN(C)S(=O)(=O)c1ccc(Cl)cc1`: the AC50 was > 100 µM (inactive).

With `Cc1ccc(NC(=O)CCCSc2ccccc2)cc1S(=O)(=O)N1CCOCC1`, the AC50 was > 100 µM (inactive).

For the compound `O=C(Nc1ccc(S(=O)(=O)NC2=NCCCCC2)cc1)c1ccc([N+](=O)[O-])s1`, the AC50 was > 100 µM (inactive). For `O=C(COC(=O)c1n[nH]c2ccccc12)Nc1cccc(S(=O)(=O)N2CCOCC2)c1`, the AC50 was > 100 µM (inactive). Under `COc1ccc(-c2nnn(CC(=O)N3CCN(c4ccccc4OC)CC3)n2)cc1OC` stands > 100 µM (inactive); under `NC(=O)c1sc2nnc(-c3ccccc3)c(-c3ccccc3)c2c1N`, > 100 µM (inactive); under `Cc1cc(Br)ccc1SCC(=O)OCC(=O)NCc1ccco1`, > 100 µM (inactive). Under `O=C(CSc1nc2scc(-c3ccccc3)c2c(=O)[nH]1)N1CCCCC1` stands > 100 µM (inactive); under `CSc1cccc(NC(=O)CSc2nc3ccccc3o2)c1`, > 100 µM (inactive).

For `CC(Nc1ncnc2ccccc12)c1ccccc1` (centres undefined), the AC50 was > 100 µM (inactive). On to `O=C(CCCOc1ccc(Cl)cc1Cl)Nc1ccccc1C(=O)O`, for which the AC50 is > 100 µM (inactive). In the case of `COc1cc2c(cc1OC)C1(C)N(CC2)C(C(C)=O)=NN1c1ccc(Cl)cc1` (centres undefined), the AC50 was > 100 µM (inactive). Take `C=CCn1c(CCSCc2ccc(OC)c(C)c2)n[nH]c1=S`: the AC50 was > 100 µM (inactive). The same measure for `COC(=O)COc1ccc(S(=O)(=O)N2CCc3ccccc3C2)cc1C`: > 100 µM (inactive); for `CCOc1ccc(C(C)=O)cc1CN1C(=O)NC2(CCCCCCC2)C1=O`: > 100 µM (inactive); for `Cc1n[nH]c(C)c1Sc1ccccc1[N+](=O)[O-]`: > 100 µM (inactive). As for `O=C(Nc1cccc(-c2cn3ccccc3n2)c1)c1ccccc1`, the AC50 is > 100 µM (inactive). As for `CCc1nnc(NS(=O)(=O)c2ccc(NC(=O)c3cccc4ccccc34)cc2)s1`, the AC50 was > 100 µM (inactive). On to `Cc1ccc(S(=O)(=O)NCc2c(-c3ccccc3)noc2C)cc1`, for which the AC50 is > 100 µM (inactive). Take `CC1(C)CC(=O)c2cnc(N3CCc4ccccc43)nc2C1`: the AC50 is > 100 µM (inactive). Turning to `Cc1ccc(NC(=O)C2CCN(S(=O)(=O)c3ccc4c(c3)NC(=O)CO4)CC2)cc1`, the AC50 is > 100 µM (inactive). Turning to `CN1CCN(C(=O)C[C@H]2CC[C@@H]3[C@H](COC[C@@H](O)CN3C(=O)Nc3ccc(Cl)cc3)O2)CC1`, the AC50 is > 100 µM (inactive). Turning to `CC1(C(=O)NS(=O)(=O)c2ccc3c(c2)CCO3)CCN1C(=O)c1ccccc1CCc1ccccc1` (centres undefined), the AC50 was > 100 µM (inactive). Under `CCN(CC)S(=O)(=O)c1ccc(O)c(C(=O)OCC(=O)NC23CC4CC(CC(C4)C2)C3)c1` stands > 100 µM (inactive); under `Cc1ccc(C2NC(=O)c3[nH]nc(-c4ccccc4)c32)cc1` (centres undefined), > 100 µM (inactive). With `COc1ccccc1-c1ccc(SCc2cccc(F)c2)nn1`, the AC50 was > 100 µM (inactive). Turning to `C[C@]12CCC3C(CC[C@H]4C[C@@H](O)CC[C@]34C)[C@H]1CC[C@H]2O` (some centres undefined), the AC50 is > 100 µM (inactive). As to `O=C(CCc1ccccc1)Nc1sc2c(c1C(=O)O)CCCC2`, the AC50 is > 100 µM (inactive).

With `CCc1cc2cc(OC)ccc2nc1SCC(=O)Nc1cc(OC)c(OC)cc1C(=O)O`, the AC50 is > 100 µM (inactive).

The values are drawn from PubChem BioAssay AID977624 (Broad Institute, 2014).
